Data from US20230220021A1, “CYCLIC PEPTIDE INHIBITORS OF PSD-95 AND USES THEREOF” (University of Copenhagen, priority 2020, published 2023).
Where a SMILES comes first, the peptide text is derived from it. [ ]: non-standard residue; d: D form.

Experiments:
PSD-95-PDZ2 [1] = target: T1, PSD-95-PDZ2 (Homo sapiens, UniProt P78352); experiment: Fluorescence polarization (FP) competition assay against cyclic nNOS TAMRA probe; type: binding; conditions: for Ki: FP competition, cyclic nNOS TAMRA probe, mean of triplicates, N.B. = not binding, read-out: Ki; for Relative Ki (Ki mut/Ki WT): FP inhibition constant normalized to WT value
T1 construct: 7xHis (N); made in house; host or cells: Escherichia coli B21 pLys (for the mutants, 'as previously described')
Method: Fluorescence polarization (FP). FP assays were performed in a 384-well plate format. Fluorescence polarization was measured using a Safire 2 plate reader. The instrument Z-factor was optimized for each assay. The G-factor was calibrated to an initial milli polarization value of 20. The wavelength for the cyclic nNOS β-hairpin TAMRA probe was: ex: 530 nm and em: 580 nm. Every measurement was performed in NaPI 50 mM, 50 mM NaCl and 1% BSA at pH 7.2, 25° C. […] The curves were done in triplicates. Then, the polarization was fitted into a one-site binding model using Prism software 8.0 (GraphPad), from which the Kd can be measured. […] The mili polarization (mP) values were plotted as a function of peptide concentration and fitted to a sigmoidal dose-response curve using Prism software 8.0 (GraphPad). The Ki values were calculated according to Nikolovska-Coleska Z. et al.^40-41

PSD-95-PDZ2 [2] = target: T2, PSD-95-PDZ2 (Homo sapiens, UniProt P78352, V178C); experiment: SPOT peptide array screening with TAMRA labelled PSD-95-PDZ2; type: binding; conditions: SPOT array, TAMRA labelled PSD-95-PDZ2-V178C, normalized to WT
T2 construct: screened with the TAMRA labelled PSD-95-PDZ2-V178C domain; 7xHis (N); made in house
Method: SPOT peptide array synthesis. To generate the cyclic nNOSβ-hairpin arrays, we used the Intavis MultiPep spotter (Intavis Bioanalytical instruments). The membranes employed in this assay were SynthoPlan APEG CE (standard amino-modified acid stable sellulose membrane with a PEG-spacer), 10×15 cm with a loading of 400 nmol cm^−2. Solutions of 0.3 M Fmoc-AA-OH and 0.3 M Oxyma Pure were prepared in N-methyl-2-pyrrolidone (NMP). The activator solution consisted of 0.3 M DIC and 0.3 M of 2,4,6-trimethylpyridine (Collidine) in NMP. The capping solution consisted of a solution of 1 M acetic anhydride and 0.05 M of 4-dimethylaminopyridine (DMAP) in NMP. The deprotection solution consisted of 20% piperidine in NMP. AA couplings were performed 1 h,4 times. Deprotection of the Fmoc groups was performed 15min,2 times. Membrane washing between couplings or deprotections was performed with NMP and ethanol. Elongation of peptides in cellulose membrane was started by coupling first the Fmoc-PEG(9)-OH (Iris Biotech) and the subsequent mixture of Fmoc-Gly-OH (25%) and Boc-Gly-OH (75%) to lower the total loading of the membrane. Afterwards, the resin was capped with the capping solution and extensively washed and soaked in bromophenol blue (BPB) as a quality control to reveal the SPOTS with a functional amino group. Then, we coupled the quasi-orthogonal group Fmoc-Glu-PP, and carried out the rest of the synthesis until peptide completion. The cellulose bound linear peptides were finally treated with a solution of 95% DCM, 3% TIPS and 2% TFA 3 times, 20 min. to remove the quasi-orthogonal group. Afterwards, the membrane was washed 5 times with DCM and neutralized with 5% DIPEA in DCM. The membrane was then washed 5 more times with DCM, 5 times with NMP and cyclized with 0.3M PyAOP and 0.3M of DIPEA in DMF for 3 h or overnight. Finally, the membrane was dried with DCM and the side-chain protecting groups were cleaved with the standard deprotection cocktail (95% TFA, 2.5% H2O and 2.5% TIPS) or with reagent K [TFA 82.5%, phenol 5%, H2O 5%, thioanisole 5% and 1,2-ethanedithiol (EDT) 2.5%] for 3 h.
SPOT membrane screening. Membranes were incubated with PBS pH 7.2+0.5% bovine serum albumin (BSA) for 1 h. After the incubation period, the membrane was dried and scanned with an Amershan Typhoon scanner, at 400V, Cy3 wavelength (532 nm). A TIF file of the screening and a file with the blank values were generated using the Image Quant software. Afterwards, a solution of 50 nM of TAMRA labelled PSD-95-PDZ2 domain was prepared in PBS pH 7.2+0.5% BSA and was added to the membrane. The membrane was left incubating in a Polymax 1040 rocking table for 1 h protected from the light. Passed the incubation time, the excess of labelled protein was removed by washing the membrane 3 times with PBS+0.5% BSA. Finally, the membrane fluorescence values were measured with the Amershan Typhoon scanner at 400V, Cy3 wavelength (532 nm). Using the Image Quant software, the TIF image of the screening and a file with the fluorescence values of the peptides with the TAMRA labelled PSD-95-PDZ2 were generated. The blank was then subtracted from the fluorescence values of the peptides screened against the TAMRA labelled PSD-95-PDZ2.
A deep mutational scan was performed on the WT scaffold, exchanging each AA to the remaining 19 L-AAs. Each array contained three copies of the individual peptides as technical replicates. Additionally, three controls were included in the design: the cyclic nNOS β-hairpin WT control (positive control), a linear nNOS peptide (cyclization control) and a cyclic nNOS β-hairpin with a F111V substitution (negative control previously tested in FP competition assays). For array screening, a mutation in PSD-95-PDZ2 residue V178 (PSD-95-PDZ2-V178C) was introduced, which was subsequently labelled with TAMRA maleimide. […]

Row | SMILES | Ki (PSD-95-PDZ2 [1]) | Relative Ki (Ki mut/Ki WT) (PSD-95-PDZ2 [1]) | Normalized SPOT fluorescence (Mut/WT) (PSD-95-PDZ2 [2])
1 | CC[C@H](C)[C@@H]1NC(=O)[C@H]([C@@H](C)O)NC(=O)[C@H](CCCCN)NC(=O)[C@@H]2CCCN2C(=O)[C@H]([C@@H](C)O)NC(=O)CNC(=O)[C@H](CC(=O)O)NC(=O)CNC(=O)[C@H](Cc2c[nH]cn2)NC(=O)[C@H](Cc2ccccc2)NC(=O)[C@H]([C@@H](C)O)NC(=O)[C@H]([C@@H](C)O)NC(=O)[C@H](CCC(=O)O)NC(=O)[C@H](CC(C)C)NC(=O)[C@H](Cc2c[nH]cn2)NC(=O)[C@H]([C@@H](C)O)NC(=O)[C@H](CCC(N)=O)NC(=O)CNC(=O)[C@H]2CCCN2C(=O)[C@H](CCC(N)=O)NC(=O)[C@H]([C@@H](C)O)NC(=O)[C@H](C(C)C)NC(=O)[C@H](CCCNC(=N)N)NC1=O [compound 20] (cyclo(THLETTFHGDGTPKTIRVTQ[dP]GQ)) | 1980 nM | 1.32 | 1.49
2 | CC[C@H](C)[C@@H]1NC(=O)[C@H]([C@@H](C)O)NC(=O)[C@H](CCCCN)NC(=O)[C@@H]2CCCN2C(=O)[C@H]([C@@H](C)O)NC(=O)CNC(=O)[C@H](CC(=O)O)NC(=O)CNC(=O)[C@H]([C@@H](C)O)NC(=O)[C@H](C(C)C)NC(=O)[C@H]([C@@H](C)O)NC(=O)[C@H]([C@@H](C)O)NC(=O)[C@H](CCC(=O)O)NC(=O)[C@H](CC(C)C)NC(=O)[C@H](Cc2c[nH]cn2)NC(=O)[C@H]([C@@H](C)O)NC(=O)[C@H](CCC(N)=O)NC(=O)CNC(=O)[C@H]2CCCN2C(=O)[C@H](CCC(N)=O)NC(=O)[C@H]([C@@H](C)O)NC(=O)[C@H](C(C)C)NC(=O)[C@H](CCCNC(=N)N)NC1=O [compound 21] (cyclo(THLETTVTGDGTPKTIRVTQ[dP]GQ)) |  | 51.60 | 0.05
3 | CC[C@H](C)[C@@H]1NC(=O)[C@H]([C@@H](C)O)NC(=O)[C@H](CCCCN)NC(=O)[C@@H]2CCCN2C(=O)[C@H]([C@@H](C)O)NC(=O)CNC(=O)[C@H](CC(=O)O)NC(=O)CNC(=O)[C@H]([C@@H](C)O)NC(=O)[C@H](Cc2ccccc2)NC(=O)[C@H]([C@@H](C)O)NC(=O)[C@H]([C@@H](C)O)NC(=O)[C@H](CCC(=O)O)NC(=O)[C@H](CC(C)C)NC(=O)[C@H](Cc2c[nH]cn2)NC(=O)[C@H](Cc2ccc(O)cc2)NC(=O)[C@H](CCC(N)=O)NC(=O)CNC(=O)[C@H]2CCCN2C(=O)[C@H](CCC(N)=O)NC(=O)[C@H]([C@@H](C)O)NC(=O)[C@H](C(C)C)NC(=O)[C@H](CCCNC(=N)N)NC1=O [compound 24] (cyclo(YHLETTFTGDGTPKTIRVTQ[dP]GQ)) | 1470 nM | 0.98 | 1.32
4 | CC[C@H](C)[C@@H]1NC(=O)[C@H]([C@@H](C)O)NC(=O)[C@H](CCCCN)NC(=O)[C@@H]2CCCN2C(=O)[C@H]([C@@H](C)O)NC(=O)[C@@H]2CCCN2C(=O)[C@H](CC(=O)O)NC(=O)CNC(=O)[C@H]([C@@H](C)O)NC(=O)[C@H](Cc2ccccc2)NC(=O)[C@H]([C@@H](C)O)NC(=O)[C@H]([C@@H](C)O)NC(=O)[C@H](CCC(=O)O)NC(=O)[C@H](CC(C)C)NC(=O)[C@H](Cc2c[nH]cn2)NC(=O)[C@H]([C@@H](C)O)NC(=O)[C@H](CCC(N)=O)NC(=O)CNC(=O)[C@H]2CCCN2C(=O)[C@H](CCC(N)=O)NC(=O)[C@H]([C@@H](C)O)NC(=O)[C@H](C(C)C)NC(=O)[C@H](CCCNC(=N)N)NC1=O [compound 30] (cyclo(THLETTFTGDPTPKTIRVTQ[dP]GQ)) | 420 nM | 0.28 | 2.33
5 | CC[C@H](C)[C@@H]1NC(=O)[C@H]([C@@H](C)O)NC(=O)[C@H](CCCCN)NC(=O)[C@@H]2CCCN2C(=O)[C@H](CC(=O)O)NC(=O)CNC(=O)[C@H](CC(=O)O)NC(=O)CNC(=O)[C@H]([C@@H](C)O)NC(=O)[C@H](Cc2ccccc2)NC(=O)[C@H]([C@@H](C)O)NC(=O)[C@H]([C@@H](C)O)NC(=O)[C@H](CCC(=O)O)NC(=O)[C@H](CC(C)C)NC(=O)[C@H](Cc2c[nH]cn2)NC(=O)[C@H]([C@@H](C)O)NC(=O)[C@H](CCC(N)=O)NC(=O)CNC(=O)[C@H]2CCCN2C(=O)[C@H](CCC(N)=O)NC(=O)[C@H]([C@@H](C)O)NC(=O)[C@H](C(C)C)NC(=O)[C@H](CCCNC(=N)N)NC1=O [compound 32] (cyclo(THLETTFTGDGDPKTIRVTQ[dP]GQ)) | 480 nM | 0.32 | 1.85
6 | CC[C@H](C)[C@@H]1NC(=O)[C@H]([C@@H](C)O)NC(=O)[C@H](CCCCN)NC(=O)[C@@H]2CCCN2C(=O)[C@H](CCC(=O)O)NC(=O)CNC(=O)[C@H](CC(=O)O)NC(=O)CNC(=O)[C@H]([C@@H](C)O)NC(=O)[C@H](Cc2ccccc2)NC(=O)[C@H]([C@@H](C)O)NC(=O)[C@H]([C@@H](C)O)NC(=O)[C@H](CCC(=O)O)NC(=O)[C@H](CC(C)C)NC(=O)[C@H](Cc2c[nH]cn2)NC(=O)[C@H]([C@@H](C)O)NC(=O)[C@H](CCC(N)=O)NC(=O)CNC(=O)[C@H]2CCCN2C(=O)[C@H](CCC(N)=O)NC(=O)[C@H]([C@@H](C)O)NC(=O)[C@H](C(C)C)NC(=O)[C@H](CCCNC(=N)N)NC1=O [compound 33] (cyclo(THLETTFTGDGEPKTIRVTQ[dP]GQ)) | 420 nM | 0.28 | 1.37
7 | CC[C@H](C)[C@@H]1NC(=O)[C@H]([C@@H](C)O)NC(=O)[C@H](CCCCN)NC(=O)[C@@H]2CCCN2C(=O)[C@H]([C@@H](C)O)NC(=O)CNC(=O)[C@H](CC(=O)O)NC(=O)CNC(=O)[C@H](CCSC)NC(=O)[C@H](Cc2ccccc2)NC(=O)[C@H]([C@@H](C)O)NC(=O)[C@H]([C@@H](C)O)NC(=O)[C@H](CCC(=O)O)NC(=O)[C@H](CC(C)C)NC(=O)[C@H](Cc2c[nH]cn2)NC(=O)[C@H]([C@@H](C)O)NC(=O)[C@H](CCC(N)=O)NC(=O)CNC(=O)[C@H]2CCCN2C(=O)[C@H](CCC(N)=O)NC(=O)[C@H]([C@@H](C)O)NC(=O)[C@H](C(C)C)NC(=O)[C@H](CCCNC(=N)N)NC1=O [compound 37] |  | 2.51 | 2.00
8 | CC[C@H](C)[C@@H]1NC(=O)[C@H]([C@@H](C)O)NC(=O)[C@H](CCCCN)NC(=O)[C@@H]2CCCN2C(=O)[C@H]([C@@H](C)O)NC(=O)CNC(=O)[C@H](CC(=O)O)NC(=O)CNC(=O)[C@H]([C@@H](C)O)NC(=O)[C@H](Cc2ccccc2)NC(=O)[C@H]([C@@H](C)O)NC(=O)[C@H]([C@@H](C)O)NC(=O)[C@H](CCC(=O)O)NC(=O)[C@H](CC(C)C)NC(=O)[C@H](Cc2c[nH]cn2)NC(=O)[C@H]([C@@H](C)O)NC(=O)[C@H](CCC(N)=O)NC(=O)CNC(=O)[C@H]2CCCN2C(=O)[C@H](CCCNC(=N)N)NC(=O)[C@H](CCCNC(=N)N)NC(=O)[C@H](C(C)C)NC(=O)[C@H](CCCNC(=N)N)NC1=O [compound 45] (cyclo(THLETTFTGDGTPKTIRVRR[dP]GQ)) |  | 1.31 | 3.50
